Reference: ChEMBL document CHEMBL1156528, “Acetyl-lysine analog peptides as mechanistic probes of protein deacetylases” (J Biol Chem, 2007)

Target: NAD-dependent protein deacetylase HST2 (Saccharomyces cerevisiae S288c, UniProt P53686)
Assay: Binding affinity to Saccharomyces cerevisiae Hst2 by isothermal titration calorimetry

Chain of NAD-dependent protein deacetylase HST2 (P53686 whole entry): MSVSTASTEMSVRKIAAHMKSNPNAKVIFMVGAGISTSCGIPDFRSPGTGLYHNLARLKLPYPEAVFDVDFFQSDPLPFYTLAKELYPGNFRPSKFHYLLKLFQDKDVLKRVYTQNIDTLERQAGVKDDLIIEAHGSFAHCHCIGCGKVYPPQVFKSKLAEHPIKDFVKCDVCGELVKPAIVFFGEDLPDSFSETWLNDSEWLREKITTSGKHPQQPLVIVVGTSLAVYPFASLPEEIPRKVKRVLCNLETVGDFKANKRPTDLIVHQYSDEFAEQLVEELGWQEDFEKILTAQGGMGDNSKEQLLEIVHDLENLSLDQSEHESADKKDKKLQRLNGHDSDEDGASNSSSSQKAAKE

Row | Structure (SMILES) | Kd [µM]
1 | CC(=N)NCCCC[C@H](NC(=O)CNC(=O)CNC(=O)[C@@H](NC(=O)[C@H](CO)NC(=O)[C@@H](N)CCCCN)[C@@H](C)O)C(=O)N[C@@H](C)C(=O)N1CCC[C@H]1C(=O)N[C@@H](CCCN=C(N)N)C(=O)N[C@@H](CCCCN)C(=O)N[C@@H](CCC(N)=O)C(=O)O | 3.3
2 | C[C@H](NC(=O)[C@H](CCCCNC(=N)N)NC(=O)CNC(=O)CNC(=O)[C@@H](NC(=O)[C@H](CO)NC(=O)[C@@H](N)CCCCN)[C@@H](C)O)C(=O)N1CCC[C@H]1C(=O)N[C@@H](CCCNC(=N)N)C(=O)N[C@@H](CCCCN)C(=O)N[C@@H](CCC(N)=O)C(=O)O | 3.3
3 | C[C@H](NC(=O)[C@H](CCCCNC(=O)CO)NC(=O)CNC(=O)CNC(=O)[C@@H](NC(=O)[C@H](CO)NC(=O)[C@@H](N)CCCCN)[C@@H](C)O)C(=O)N1CCC[C@H]1C(=O)N[C@@H](CCCNC(=N)N)C(=O)N[C@@H](CCCCN)C(=O)N[C@@H](CCC(N)=O)C(=O)O | 3.3
4 | C[C@H](NC(=O)[C@H](CCCCNC(N)=O)NC(=O)CNC(=O)CNC(=O)[C@@H](NC(=O)[C@H](CO)NC(=O)[C@@H](N)CCCCN)[C@@H](C)O)C(=O)N1CCC[C@H]1C(=O)N[C@@H](CCCN=C(N)N)C(=O)N[C@@H](CCCCN)C(=O)N[C@@H](CCC(N)=O)C(=O)O | 3.3
5 | CC(=S)NCCCC[C@H](NC(=O)CNC(=O)CNC(=O)[C@@H](NC(=O)[C@H](CO)NC(=O)[C@@H](N)CCCCN)[C@@H](C)O)C(=O)N[C@@H](C)C(=O)N1CCC[C@H]1C(=O)N[C@@H](CCCNC(=N)N)C(=O)N[C@@H](CCCCN)C(=O)N[C@@H](CCC(N)=O)C(=O)O | 3.3
6 | CCCC(=O)NCCCC[C@H](NC(=O)CNC(=O)CNC(=O)[C@@H](NC(=O)[C@H](CO)NC(=O)[C@@H](N)CCCCN)[C@@H](C)O)C(=O)N[C@@H](C)C(=O)N1CCC[C@H]1C(=O)N[C@@H](CCCN=C(N)N)C(=O)N[C@@H](CCCCN)C(=O)N[C@@H](CCC(N)=O)C(=O)O | 16
7 | C[C@H](NC(=O)[C@H](CCCCNC(=O)CF)NC(=O)CNC(=O)CNC(=O)[C@@H](NC(=O)[C@H](CO)NC(=O)[C@@H](N)CCCCN)[C@@H](C)O)C(=O)N1CCC[C@H]1C(=O)N[C@@H](CCCNC(=N)N)C(=O)N[C@@H](CCCCN)C(=O)N[C@@H](CCC(N)=O)C(=O)O | 3.3
8 | C[C@H](NC(=O)[C@H](CCCCNC(=O)C(F)F)NC(=O)CNC(=O)CNC(=O)[C@@H](NC(=O)[C@H](CO)NC(=O)[C@@H](N)CCCCN)[C@@H](C)O)C(=O)N1CCC[C@H]1C(=O)N[C@@H](CCCN=C(N)N)C(=O)N[C@@H](CCCCN)C(=O)N[C@@H](CCC(N)=O)C(=O)O | 3.3
